Results on 1 molecule are retold here after ChEMBL document CHEMBL3886764, “Acetamide derivatives” (2016).

The target of the test is Transient receptor potential cation channel subfamily A member 1 (Homo sapiens, UniProt O75762). The experiment in a line: Dose Response Assay: Compound plates were resuspended with 100 ul of HBSS/20 mM HEPES/0.005% BSA buffer (Compound Buffer): column 1A-H: buffer/DMSO (bk); column 2A-H: AP-18 (control antagonist for CHOK1 TRPA1 cells); column 1I-P: ATP (control for CHOK1 teton cells); column 2 I-P: 2APB (control antagonist for CHOK1/TRPM8 cells). Growth media was removed from the cell plates (20 ul) and 20 ul of the Replacement Buffer was added followed by addition of 25 ul of diluted dye. All three steps were performed using a Plate Washer BioTek 407. The plates were then incubated for 30' at RT. After incubation, both the cell and compound plates were brought to the FLIPR and 20 ul of the diluted compounds/antagonist/bk were transferred to the cell plates by the FLIPR. Plates were then incubated for 30' at room temperature. After 30' incubation, plates were returned to the FLIPR and 20 ul of 4.5× Cinnamaldehyde was added to the cell plates. During the compound addition as well as agonist addition, fluorescence readings were taken simultaneously from all 384 wells of the cell plate every 1.5 seconds. Five readings were taken to establish a stable baseline, then 20 ul of sample was rapidly (30 ul/sec) and simultaneously added to each well of the cell plate. […].

For orientation: pIC50 means −log10 of the IC50, conventionally taken in molar units. A high value points to a small IC50.

pIC50: −log10 of the molar value.

Chain of Transient receptor potential cation channel subfamily A member 1 (O75762 whole entry): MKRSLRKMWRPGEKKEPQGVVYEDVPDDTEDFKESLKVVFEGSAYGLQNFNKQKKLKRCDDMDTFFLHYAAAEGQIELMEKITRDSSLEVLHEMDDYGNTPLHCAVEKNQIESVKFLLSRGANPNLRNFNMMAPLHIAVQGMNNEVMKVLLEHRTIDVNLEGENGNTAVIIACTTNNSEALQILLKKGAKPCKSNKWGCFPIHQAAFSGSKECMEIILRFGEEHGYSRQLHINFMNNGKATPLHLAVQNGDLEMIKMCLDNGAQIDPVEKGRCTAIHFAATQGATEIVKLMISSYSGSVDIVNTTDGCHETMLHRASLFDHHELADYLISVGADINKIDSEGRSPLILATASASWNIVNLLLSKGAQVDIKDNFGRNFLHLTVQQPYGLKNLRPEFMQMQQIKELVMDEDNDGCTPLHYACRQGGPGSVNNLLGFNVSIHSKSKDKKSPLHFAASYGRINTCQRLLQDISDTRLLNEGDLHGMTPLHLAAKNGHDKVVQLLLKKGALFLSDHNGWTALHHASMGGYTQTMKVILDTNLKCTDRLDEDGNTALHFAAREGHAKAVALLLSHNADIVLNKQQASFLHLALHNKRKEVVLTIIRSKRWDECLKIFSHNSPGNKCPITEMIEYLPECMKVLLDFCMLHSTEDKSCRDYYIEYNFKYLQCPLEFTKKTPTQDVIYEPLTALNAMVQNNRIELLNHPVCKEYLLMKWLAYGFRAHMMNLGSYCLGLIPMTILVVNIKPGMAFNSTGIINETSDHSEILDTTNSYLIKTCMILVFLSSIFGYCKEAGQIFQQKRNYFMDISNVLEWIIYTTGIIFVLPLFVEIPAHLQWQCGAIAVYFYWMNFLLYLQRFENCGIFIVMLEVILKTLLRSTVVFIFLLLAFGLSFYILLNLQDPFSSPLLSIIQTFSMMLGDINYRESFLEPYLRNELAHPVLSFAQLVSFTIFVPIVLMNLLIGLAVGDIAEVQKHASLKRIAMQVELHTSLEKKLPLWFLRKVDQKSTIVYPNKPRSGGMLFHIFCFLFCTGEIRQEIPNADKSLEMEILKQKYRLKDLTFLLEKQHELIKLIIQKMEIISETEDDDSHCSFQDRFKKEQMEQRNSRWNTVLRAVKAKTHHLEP

Molecule `CN(CC(=O)NCC1CN(c2ccc(C(F)(F)F)cc2)CCO1)S(=O)(=O)c1ccc(F)cc1` (stereo unspecified) showed a pIC50 of 5.82.
